Laboratory results published in US6831084B1, “Branched adamantyl and noradamantyl aryl- and aralkylpiperazines with serotonin 5-HT1A activity” (Wyeth, priority 1999, dated 2004).
Structures can show the parent of a compound that is named as a salt.

What was measured:
[1] = biological target: T1, human 5-HT1A receptor (Homo sapiens, UniProt P08908); assay: Stimulation of [35S]-GTPγS binding (5-HT1A agonist activity) in CHO cells stably transfected with human 5-HT1A receptor; type: biochemical; conditions: for 5-HT1A Agonist Activity (GTPγS) % Agonist Activity: relative to the effect of the 5-HT1A full agonist 8-OH-DPAT
T1 construct: expressed in transfected cells; host or cells: CHO cells, stably transfected
T1 sequence (P08908 1-422): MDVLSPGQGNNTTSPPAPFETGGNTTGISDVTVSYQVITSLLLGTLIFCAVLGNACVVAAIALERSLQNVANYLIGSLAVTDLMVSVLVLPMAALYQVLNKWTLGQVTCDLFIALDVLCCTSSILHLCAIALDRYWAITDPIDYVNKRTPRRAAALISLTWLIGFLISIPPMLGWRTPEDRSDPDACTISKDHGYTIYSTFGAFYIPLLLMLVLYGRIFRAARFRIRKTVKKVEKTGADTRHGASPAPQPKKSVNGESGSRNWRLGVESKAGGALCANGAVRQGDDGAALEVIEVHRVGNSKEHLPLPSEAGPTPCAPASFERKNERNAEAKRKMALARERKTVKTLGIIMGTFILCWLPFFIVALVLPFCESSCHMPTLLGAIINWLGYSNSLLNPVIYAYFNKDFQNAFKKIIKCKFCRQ
Excerpt: Data are presented as the percent of
agonist activity observed relative to the effect obtained with the 5-HT1A full agonist 8-OH-DPAT and the corresponding EC50 value.

[2] = biological target: T2, serotonin 5-HT1A receptor (Rattus norvegicus, UniProt P19327); assay: Displacement of [3H]-8-OH-DPAT from 5-HT1A receptor in rat hippocampal membrane homogenates; type: binding; conditions: [3H]-8-OH-DPAT displacement, read-out: 5-HT1A Affinity (IC50)
T2 construct: in rat hippocampal membrane homogenates; from tissue; host or cells: rat hippocampus (membrane homogenates)
T2 sequence (P19327 1-422): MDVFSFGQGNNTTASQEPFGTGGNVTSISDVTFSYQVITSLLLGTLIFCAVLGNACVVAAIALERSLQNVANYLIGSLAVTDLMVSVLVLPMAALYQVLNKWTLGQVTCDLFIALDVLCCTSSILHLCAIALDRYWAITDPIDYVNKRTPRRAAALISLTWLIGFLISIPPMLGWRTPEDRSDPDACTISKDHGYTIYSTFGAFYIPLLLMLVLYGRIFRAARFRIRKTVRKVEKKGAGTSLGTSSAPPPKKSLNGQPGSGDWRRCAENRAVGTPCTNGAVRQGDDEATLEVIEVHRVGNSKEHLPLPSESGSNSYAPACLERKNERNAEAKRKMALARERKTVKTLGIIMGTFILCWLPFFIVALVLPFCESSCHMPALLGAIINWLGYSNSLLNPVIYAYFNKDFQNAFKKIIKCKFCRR
Excerpt: Affinity for the serotonin 5-HT1A receptor was established by assaying the test compound's ability to displace [^3H]-8-OH-DPAT from its binding site on the receptor complex in rat hippocampal membrane homogenates according to the method described in U.S. Pat. No. 5,482,940.

[3] = biological target: T1, human 5-HT1A receptor; assay: Block of 8-OH-DPAT-induced stimulation of [35S]-GTPγS binding (5-HT1A antagonist activity) in CHO cells stably transfected with human 5-HT1A receptor; type: biochemical; conditions: block of 8-OH-DPAT-induced [35S]-GTPγS binding

EC50 [1]	Compound	melting point	5-HT1A Agonist Activity (GTPγS) % Agonist Activity [1]	IC50 [2]	also measured
	O=C(N[C@H](Cc1ccccc1)CN1CCN(c2ncccn2)CC1)C12CC3CC(CC(C3)C1)C2 (hydrate or solvate) [Example 3, (R)-N-[1-(Phenylmethyl)-2-[4-(2-pyrimidinyl)-1-piperazinyl]ethyl]tricyclo[3.3.1.1^3,7)]-decane-1-carboxamide Hemihydrate]	172 to 175 °C			
	O=C(N[C@@H](Cc1ccccc1)CN1CCN(Cc2ccccc2)CC1)C12CC3CC(CC(C3)C1)C2 (as salt: hydrochloride) (hydrate or solvate) [Example 2, (S)-N-[1-(Phenylmethyl)-2-[4-(phenylmethyl)-1-piperazinyl]ethyl]tricyclo[3.3.1.1^3,7)]-decane-1-carboxamide Dihydrochloride Dihydrate]	263 to 266 °C			
	Cl.Cl.O.O.O=C(N[C@@H](COCc1ccccc1)CN1CCN(Cc2ccccc2)CC1)C12CC3CC(CC(C3)C1)C2 [Example 5]		49%		
	COc1ccccc1N1CCN(C[C@@H](Cc2ccccc2)NC(=O)C23CC4CC(CC(C4)C2)C3)CC1.COc1ccccc1N1CCN(C[C@@H](Cc2ccccc2)NC(=O)C23CC4CC(CC(C4)C2)C3)CC1.O.O=C(O)/C=C/C(=O)O [Example 6, (R)-Adamantane-1-carboxylic acid [1-(phenylmethyl)-2-[4-(2-methoxyphenyl)-piperazinyl]ethyl]-amide Hemifumarate Hemihydrate]		76%	0.21 nM	
2 nM	O=C(N[C@H](Cc1ccccc1)CN1CCN(c2ncccn2)CC1)C12CC3CC(CC(C3)C1)C2 [Example 3, (R)-N-[1-(Phenylmethyl)-2-[4-(2-pyrimidinyl)-1-piperazinyl]ethyl]tricyclo[3.3.1.1^3,7)]-decane-1-carboxamide Hemihydrate]		100%	0.43 nM	
	O=C(N[C@H](Cc1ccccc1)CN1CCN(Cc2ccccc2)CC1)C12CC3CC(CC(C3)C1)C2 (as salt: hydrochloride) (hydrate or solvate) [Example 1, (R)-N-[1-(Phenylmethyl)-2-[4-(phenylmethyl)-1-piperazinyl]ethyl]tricyclo[3.3.1.1^3,7)]-decane-1-carboxamide Dihydrochloride Dihydrate]	261 to 263 °C			
77 nM	Cl.Cl.O.O.O=C(N[C@@H](COCc1ccccc1)CN1CCN(Cc2ccccc2)CC1)C12CC3CC(CC(C3)C1)C2 [Example 5, (R)-N-[1-((Phenylmethoxy)methyl)-2-[4-(phenylmethyl)-1-piperazinyl]ethyl]tricyclo-[3.3.1.1^3,7)]-decane-1-carboxamide Dihydrochloride Dihydrate]			62 nM	
	O=C(N[C@H](Cc1ccccc1)CN1CCN(Cc2ccccc2)CC1)C12CC3CC(CC(C3)C1)C2 [Example 1, (R)-N-[1-(Phenylmethyl)-2-[4-(phenylmethyl)-1-piperazinyl]ethyl]tricyclo[3.3.1.1^3,7)]-decane-1-carboxamide Dihydrochloride Dihydrate]			2.3 nM	5-HT1A Antagonist Activity (GTPγS) % Antagonist Activity [3]: 100%; EC50 [3]: 36 nM
2.4 nM	O=C(N[C@@H](Cc1ccccc1)CN1CCN(c2ncccn2)CC1)C12CC3CC(CC(C3)C1)C2 [Example 4]	172 to 175 °C	99%	1 nM	
	COc1ccccc1N1CCN(C[C@H](Cc2ccccc2)NC(=O)C23CC4CC(CC(C4)C2)C3)CC1.COc1ccccc1N1CCN(C[C@H](Cc2ccccc2)NC(=O)C23CC4CC(CC(C4)C2)C3)CC1.O.O.O=C(O)/C=C/C(=O)O [Example 7, (S)-Adamantane-1-carboxylic acid [1-(phenylmethyl)-2-[4-(2-methoxyphenyl)-piperazinyl]ethyl]-amide Hemifumarate Hydrate]		85%	0.7 nM	

Compound	EC50 [1]	melting point	5-HT1A Agonist Activity (GTPγS) % Agonist Activity [1]	IC50 [2]	also measured
O=C(N[C@@H](Cc1ccccc1)CN1CCN(Cc2ccccc2)CC1)C12CC3CC(CC(C3)C1)C2 [Example 2, (S)-N-[1-(Phenylmethyl)-2-[4-(phenylmethyl)-1-piperazinyl]ethyl]tricyclo[3.3.1.1^3,7)]-decane-1-carboxamide Dihydrochloride Dihydrate]	21 nM		51%	0.7 nM	
